Experiments:
[1] = system: ERK; assay: Western blot, phosphorylation status of ERK in hippocampal tissues; type: in vivo; conditions: PND7 mice; BAY 60-7550 3 mg/kg 30 min, molsidomine 4 mg/kg 30 min
Method: PND7 mice were exposed to isoflurane (1.5% ISO in 02, 4 hr), control gas (100% O2, 4 hr), PDE inhibitor (BAY 60-7550, 3 mg/kg, 30 min), or NO donor (molsidomine, 4 mg/kg, 30 min), we harvested hippocampal tissues for Western blotting to assess the phosphorylation status of ERK.

[2] = system: neuron cultures; assay: Neuron cultures, synapses (PSD95/Synaptophysin puncta) at DIV14; type: cell-based; conditions: DETA 150 μM and ODQ 100 μM for 4 hrs right before exposure to gases at DIV7
Method: Neuron cultures were transfected with GFP-AAV virus at DIV-4 and were exposed to NO donor (DETA) 150 μM and sGC inhibitor (ODQ) 100 μM for 4 hrs right before exposure to gases at DIV7. Cells were returned back to incubator with half media change every second day. At DIV14, cells were fixed and stained with PSD95 and Synaptophysin. […] Scale bar is 5 μm. FIG. 23B: Synapse were analyzed using puncta analyzer plugin as shown in methods section.

[3] = system: primary neuron cultures; assay: Primary neuron cultures, long thin spines and filopodia at DIV7; type: cell-based; conditions: for effect on PDZ2WT-induced loss of long thin spines and filopodia at DIV7: PDZ2WT peptide 1 μM 4 hrs; for effect on PDZ2WT-induced loss of long thin spines and filopodia at DIV7 / effect on isoflurane-induced loss of long thin spines and filopodia at DIV7: DETA NONOate 150 μM, ODQ 100 μM added to NO donor; for effect on isoflurane-induced loss of long thin spines and filopodia at DIV7: isoflurane 1.5% 4 hrs
Method: Primary neuron cultures were exposed to control gas (25% O2, 5% CO2, bal N2), isoflurane (1.5% ISO in 25% O2, 5% CO2, bal N2), DETA NONOate NO donor 150 μM and sGC inhibitor ODQ 100 μM for 4 hrs. […] MAP2 dendrite marker, green. Drebrin A/E immature spine/filopodia marker, red. Scale bar is 5 μm. FIG. 20B, Density of long thin spines and filopodia at DIV7 among exposed groups analyzed using Imaris 93.1;
MAP2, green. Drebrin, red. Scale bar is 5 μm. FIG. 21B, show the density of long thin spines and filopodia among exposed groups;
Neuron cultures were exposed to control gas (25% O2, 5% CO2, balance N2) or sevoflurane (2.1% ISO in 25% O2, 5% CO2, balanced N2) for 4 hrs. […] Scale bar is 5 μm. FIG. 22B, Density of long thin spines and filopodia among exposed groups; and […]

[4] = system: PSD-95 or PSD-93 and the NMDA receptor or nNOS; conditions: clinically relevant concentrations; Fang et al., 2003; Tao et al., 2015; cited from earlier work
[5] = system: C57BL6 mice; assay: Novel object recognition at PND21; type: in vivo; conditions: molsidomine 4 mg/kg ip after PND7 exposure, PND21
Method: 1.3.2 Anesthesia, Peptide, and Molsidomine Injections. PND7 control and experimental mice were placed in a clear plastic cone and body temperature maintained by a heating blanket set to 35° C. Vital signs and physiological monitoring were assessed using PhysioSuite® (Kent Scientific Corporation, Torrington, Conn., USA) and blood gasses were collected arterially. […] Note that lower concentrations of 02 can be used, e.g., between 20% to 100% 02, including 20%, 25%, 30%, 35%, 40%, 45%, 50%, 55%, 60%, 65%, 70%, 75%, 80%, 85%, 90%, 95%, 96%, 97%, 98%, 99%, and 100% 02. Naïve animals were left with the dams. Anesthesia was initiated with 2.4% ISO in 100% oxygen for 2 min and tapered down to 1.5% within 15 min. Exposure to 1.5% ISO was continued for 3 hours and 45 min (total 4 hours ISO). Control ‘CON’ animals were exposed to 100% oxygen only. At the end of the exposure animals were maintained in oxygen on the heating blanket for 10 min then returned to dams. […] Tao and Johns, 2008. A single injection of peptide was given ip. Separate peptide cohorts were injected in parallel with mice undergoing exposure to anesthesia or O2 control. Purification of fusion peptides was performed by Creative BioMart (Shirley, N.Y.) and verified by Coomassie blue staining and Western blot analysis and then stored in 10% glycerol/phosphate buffered saline at −80° C. until use. The Tat-PSD-95 PDZ2WT and MUT plasmids used to generate proteins containing an amino-terminal, in-frame, 11-amino-acid, minimal transduction domain (residues 47-57 of human immunodeficiency virus Tat protein) termed Tat. […] Fang et al., 2003. The NO donor molsidomine [(N-[ethoxycarbonyl]-3-[4-morpholinosydnomine] (Sigma, St. Louis, Mo.) was injected at 4 mg/kg into mice ip in 100 μL sterile saline as previously described. The NO donor was added immediately following cessation of anesthesia or control (O2) exposure, i.e., the NO donor was injected 4 hours after onset of anesthesia. One of ordinary skill in the art upon review of the present disclosure would appreciate that the NO donor could be administered at other times during anesthesia, including at the onset of anesthesia. Control animals were injected ip with the vehicle (saline).
1.3.7 Novel Object Recognition. The novel object recognition (NOR) procedure was based upon the original Ennaceur et al., 1988, procedure and was used to assess nonspatial hippocampal memory. Clark et al., 2000; Baker and Kim, 2002; Reger et al., 2009. It consisted of a training ‘familiarization’ phase followed by a testing phase. During training, mice were allowed to freely explore within an opaque box (40 cm W×40 cm L×34 cm H) containing two identical objects for 10 min. Data were recorded with a video camera and time spent with each object was recorded using ANYmaze software (Stoelting). Object investigation time was determined by the amount of time the mouse spent in the zone immediately surrounding the object. […] After 2 h, object recognition was tested, using the same procedure as in training except that a novel object was substituted for one of the familiar training objects and mice were allowed to explore for 5 min. Mice inherently prefer to explore novel objects; thus, a preference for the novel object indicates intact memory for the familiar object.

[6] = system: hippocampal dendritic mushroom spines (dentate gyrus); type: in vivo, mice; conditions: molsidomine 4 mg/kg ip after PND7 exposure, PND49
Method: PND7 control and experimental mice were placed in a clear plastic cone and body temperature maintained by a heating blanket set to 35° C. Heart rate (HR) and oxyhemoglobin saturation (SpO2) were continuously monitored using pulse-oximetry (PhysioSuite, Kent Scientific). Arterial blood was collected by terminal cardiac puncture of the left ventricle from sentinels and pH (pHa) determined using a blood gas machine (ABL800 FLEX Series Radiometer). […] Naïve control animals were left with the dams. Control ‘CON’ animals were exposed to oxygen only. Anesthesia was initiated with 2.4% isoflurane in oxygen for 2 min and tapered down to 1.5% within 15 min. Exposure to 1.5% isoflurane was continued for 3 hours and 45 min (total 4 hours ISO). At the end of the exposure animals were maintained in oxygen on the heating blanket for 10 min then returned to dams. […] Tao and Johns, 2008. Purification of fusion peptides was performed by Creative BioMart (Shirley, N.Y.) and verified by Coomassie blue staining and Western blot analysis and then stored in 10% glycerol/phosphate-buffered saline at −80° C. until use. The Tat-PSD-95 PDZ2WT and MUT plasmids used to generate proteins containing an amino-terminal, in-frame, 11-amino-acid, minimal transduction domain (residues 47-57 of human immunodeficiency virus Tat protein) termed Tat. […] Fang et al., 2003. […]

[7] = system: hippocampal CA1 LTP (Schaffer collateral pathway); assay: Extracellular field-potential recordings, LTP in hippocampal slices at PND21; type: in vivo, mice; conditions: molsidomine 4 mg/kg ip after PND7 exposure
Method: 1.3.2 Anesthesia, Peptide, and Molsidomine Injections. PND7 control and experimental mice were placed in a clear plastic cone and body temperature maintained by a heating blanket set to 35° C. Vital signs and physiological monitoring were assessed using PhysioSuite® (Kent Scientific Corporation, Torrington, Conn., USA) and blood gasses were collected arterially. […] Note that lower concentrations of 02 can be used, e.g., between 20% to 100% 02, including 20%, 25%, 30%, 35%, 40%, 45%, 50%, 55%, 60%, 65%, 70%, 75%, 80%, 85%, 90%, 95%, 96%, 97%, 98%, 99%, and 100% 02. Naïve animals were left with the dams. Anesthesia was initiated with 2.4% ISO in 100% oxygen for 2 min and tapered down to 1.5% within 15 min. Exposure to 1.5% ISO was continued for 3 hours and 45 min (total 4 hours ISO). Control ‘CON’ animals were exposed to 100% oxygen only. At the end of the exposure animals were maintained in oxygen on the heating blanket for 10 min then returned to dams. […] Tao and Johns, 2008. A single injection of peptide was given ip. […]
1.3.6.2. […] Synaptic responses were recorded using a MultiClamp 700B amplifier, and the signal was digitized with Digidita 1440A, analyzed with pClamp10 and stored on a personal computer. […] Measurements of the fEPSP slopes were made during the rising phase (5-50% of the peak) and the values normalized to the mean values recorded in 20-min baseline. […]

| SMILES | amount of pERK [1] | effect on isoflurane-induced loss of synapses at DIV14 [2] | effect on PDZ2WT-induced loss of long thin spines and filopodia at DIV7 [3] | effect on isoflurane-induced loss of long thin spines and filopodia at DIV7 [3] | PDZ domain-mediated protein interactions [4] | further results |
| --- | --- | --- | --- | --- | --- | --- |
| COc1ccc(Cc2nn3c([C@@H](CCCc4ccccc4)[C@@H](C)O)nc(C)c3c(=O)[nH]2)cc1OC [BAY 60-7550] | significant increases in the amount of pERK |  |  |  |  |  |
| NCCN(CCN)/[N+]([O-])=N/O [DETA NONOate] |  | prevented loss of synapses | prevented loss of immature spines | prevented loss of immature spines |  |  |
| O=c1onc2cnc3ccccc3n12 [ODQ] |  | blocked the prevention with DETA | blocked the prevention with NO donor | blocked the prevention with NO donor |  |  |
| FC(F)(F)C(Cl)Br (centres unmarked) [halothane, 2-bromo-2-chloro-1,1,1-trifluoroethane] |  |  |  |  | can disrupt PDZ domain-mediated protein-protein interactions in vitro and in vivo |  |
| FCOC(C(F)(F)F)C(F)(F)F [sevoflurane, 1,1,1,3,3,3-hexafluoro-2-(fluoromethoxy)propane] |  |  |  |  | can disrupt PDZ domain-mediated protein-protein interactions in vitro and in vivo | long thin spines and filopodia at DIV7 after exposure ([3]; 4 hrs: isoflurane 1.5%, PDZ2WT peptide 1 μM or sevoflurane 2.1%): loss of filopodia |
| CCOC(=O)Nc1c[n+](N2CCOCC2)no1 [molsidomine, N-ethoxycarbonyl-3-morpholinosydnonimine] | significant increases in the amount of pERK |  |  |  |  | effect of NO donor on impairment in recognition memory caused by ISO or PDZ2WT peptide [5]: prevents impairment in LTP and recognition memory; effect of NO donor on decrease in mushroom spine density caused by isoflurane or PDZ2WT peptide [6]: prevents the decrease in mushroom spine density; effect of NO donor on impairment in LTP caused by ISO or PDZ2WT peptide [7]: prevents impairment in LTP and recognition memory |

From patent publication US20220087970A1, “PREVENTION OF ANESTHETIC-INDUCED NEUROCOGNITIVE DYSFUNCTION” (The Johns Hopkins University, priority 2019, published 2022)
